Reference: patent US5591741A, “Fungicidal spiroheterocyclic derivatives” (American Cyanamid Company, priority 1993, dated 1997)

Columns and labels:
Plasmopara viticola = assay: Antisporulant activity against vine downy mildew (PVA); assay type: in vivo; conditions: vine leaves, antisporulant foliar spray, 600 ppm, 750 l/ha
Summary of the method: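 Cabernet Sauvignon vines (~8 cm) inoculated on lower leaf surfaces with 5×10^4 zoosporangia/ml, held 24 h at 21° C high humidity then 24 h glasshouse. Infected leaves sprayed underside with 600 ppm compound in 1:1 water/acetone, 0.04% Tween 20, 750 l/ha; 96 h glasshouse, 24 h humidity. Sporulating leaf area rated versus control.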

Alternaria solani = assay: Activity against tomato early blight (AS); assay type: in vivo; conditions: Table VI; tomato seedlings, contact prophylactic foliar spray, 4 days
Summary of the method: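 Plants were challenged with A. solani conidia (10^4 spores/ml) 24 h after a protective foliar spray of compound in 50:50 acetone/water plus 0.04% Tween 20. Held humid at 21° C for 4 days, then percent leaf area with lesions was scored as a rating relative to controls.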

Botrytis cinerea = assay: Direct protectant activity against broad bean grey mould (BCB); assay type: in vivo; conditions: direct protectant foliar spray, 600 ppm, 4 days
Summary of the method: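 Protectant foliar test: lesion coverage assessed 4 days after inoculation and rated relative to untreated or diluent-sprayed plants. Compound applied at 600 ppm to cv The Sutton leaves 24 h before 10^6 conidia/ml suspension; incubation at 22 °C in high humidity.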

Leptosphaeria nodorum = assay: Activity against wheat leafspot (LN); assay type: in vivo; conditions: direct therapeutic foliar spray, 600 ppm, 6-8 days
Summary of the method: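 Therapeutic foliar spray: compound at 600 ppm applied to single-leaf wheat (cv Norman) 24 h after inoculation with 1.5×10^6 conidia/ml. Disease control scored after 6-8 days at 22° C and 70% humidity as lesions per leaf versus untreated or diluent-sprayed controls.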

[1] = test system: Erysiphe graminis f.sp. hordei; assay: Activity against barley powdery mildew, direct therapeutic (EGT); assay type: in vivo; conditions: direct therapeutic foliar spray, 600 ppm, up to 7 days
Summary of the method: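 A curative spray at 600 ppm was applied to single-leaf Golden Promise barley inoculated with powdery mildew conidia the previous day. After up to 7 days at 18 °C and 40% humidity, disease control was rated from percent leaf area sporulating relative to untreated or diluent-sprayed controls.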

[2] = test system: Erysiphe graminis f.sp. hordei; assay: Direct protectant activity against barley powdery mildew (EGP); assay type: in vivo; conditions: direct protectant foliar spray, 8 days
Summary of the method: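 Rating reflects percentage of leaf area with sporulation compared with untreated or diluent-sprayed controls. Protectant spray was applied to single-leaf barley (cv Golden Promise) 24 h before conidia inoculation. Plants were kept at 18 °C and 40% RH throughout, with 8 days of disease development.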

Phytophthora infestans = assay type: in vivo; conditions: tomato, direct protectant foliar spray
[3] = test system: Pseudocercosporella herpotrichoides; assay: Activity against wheat eyespot in-vitro (PHI); assay type: cell-based; conditions: 10 ppm, 10 days, 20° C., mycelial growth
Summary of the method: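 Mycelial growth was scored after 10 days at 20 °C against untreated or diluent controls. The broth was half-strength potato dextrose, holding 10 ppm test compound (from acetone) and 5×10^4 fragments/ml of the eyespot fungus.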

Rhizoctonia solani = assay: Activity against Rhizoctonia in-vitro (RSI); assay type: cell-based; conditions: 10 ppm, 10 days, 20° C., mycelial growth
Summary of the method: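 Compound at a final 10 ppm (acetone vehicle) in half-strength PDB, inoculated with 5×10^4 fragments/ml of shaken-culture R. solani mycelium. After incubation at 20° C for 10 days, growth scored as a rating versus untreated or diluent-treated controls.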

Venturia inaequalis = assay: Activity against apple scab in-vitro (VII); assay type: cell-based; conditions: 10 ppm, 10 days, 20° C., mycelial growth
Summary of the method: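 V. inaequalis propagules (5×10^4/ml, malt agar-grown) were exposed in half-strength PDB to 10 ppm final test compound delivered in acetone. Growth was scored after incubation for 10 days at 20° C, as a rating relative to untreated or diluent-sprayed controls.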

Pyricularia oryzae = assay type: in vivo; conditions: rice seedlings, direct therapeutic foliar spray, 600 ppm, 4-5 days

SMILES	disease control rating PVA (Plasmopara viticola)	disease control rating AS (Alternaria solani)	disease control rating BCB (Botrytis cinerea)	disease control rating LN (Leptosphaeria nodorum)	disease control rating EGT [1]	disease control rating EGP [2]	disease control rating PIP (Phytophthora infestans)	disease control rating PHI [3]	disease control rating RSI (Rhizoctonia solani)	disease control rating VII (Venturia inaequalis)	disease control rating PO (Pyricularia oryzae)
CCCCCCN(C)C1COC2(CCC(C(C)(C)C3CCCCC3)CC2)C1 (centres unmarked) [Compound 140]	0 (less than 50% disease control)	0 (less than 50% disease control)	0 (less than 50% disease control)	1 (about 50-80% disease control)	2 (greater than 80% disease control)	2 (greater than 80% disease control)	0 (less than 50% disease control)	2 (greater than 80% disease control)	2 (greater than 80% disease control)	2 (greater than 80% disease control)	0 (less than 50% disease control)
CCC(C)NC1COC2(CCC(C(C)(C)C)CC2)C1 (centres unmarked) [Compound 65]	0 (less than 50% disease control)	0 (less than 50% disease control)	2 (greater than 80% disease control)	0 (less than 50% disease control)	2 (greater than 80% disease control)	2 (greater than 80% disease control)	0 (less than 50% disease control)	0 (less than 50% disease control)	0 (less than 50% disease control)	0 (less than 50% disease control)	0 (less than 50% disease control)
CC(C)(C)C1CCC2(CC1)CC(NC1C3CC4CC(C3)CC1C4)CO2 (centres unmarked) [Compound 86]	0 (less than 50% disease control)	2 (greater than 80% disease control)	0 (less than 50% disease control)	0 (less than 50% disease control)	2 (greater than 80% disease control)	2 (greater than 80% disease control)	2 (greater than 80% disease control)	0 (less than 50% disease control)	0 (less than 50% disease control)	1 (about 50-80% disease control)	0 (less than 50% disease control)
C=CCN(CC=C)C1COC2(CCC(C(C)(C)C)CC2)C1 (centres unmarked) [Compound 103]	0 (less than 50% disease control)	0 (less than 50% disease control)	2 (greater than 80% disease control)	0 (less than 50% disease control)	2 (greater than 80% disease control)	2 (greater than 80% disease control)	2 (greater than 80% disease control)	0 (less than 50% disease control)	0 (less than 50% disease control)	1 (about 50-80% disease control)	0 (less than 50% disease control)
CC(C)(C)C1CCC2(CC1)CC(CNC1CCCCC1)CO2 (centres unmarked) [Compound 182, 8-t-Butyl-3-cyclohexylaminomethyl-1-oxaspiro(4,5)decane]	0 (less than 50% disease control)	0 (less than 50% disease control)	1 (about 50-80% disease control)	1 (about 50-80% disease control)	2 (greater than 80% disease control)	2 (greater than 80% disease control)	0 (less than 50% disease control)	1 (about 50-80% disease control)	2 (greater than 80% disease control)	2 (greater than 80% disease control)	0 (less than 50% disease control)
CC(C)(C)C1CCC2(CC1)CC(NC1CCC(O)CC1)CO2 (centres unmarked) [Compound 90]	0 (less than 50% disease control)	0 (less than 50% disease control)	2 (greater than 80% disease control)	0 (less than 50% disease control)	2 (greater than 80% disease control)	2 (greater than 80% disease control)	2 (greater than 80% disease control)	0 (less than 50% disease control)	0 (less than 50% disease control)	0 (less than 50% disease control)	0 (less than 50% disease control)
CCCCCCCNC1COC2(CCC(C(C)(C)C)CC2)C1 (centres unmarked) [Compound 5]	0 (less than 50% disease control)	0 (less than 50% disease control)	1 (about 50-80% disease control)	0 (less than 50% disease control)	2 (greater than 80% disease control)	2 (greater than 80% disease control)	0 (less than 50% disease control)	0 (less than 50% disease control)	1 (about 50-80% disease control)	0 (less than 50% disease control)	0 (less than 50% disease control)
CC(C)(C)C1CCC2(CC1)CC(NC1CC1)CO2 (centres unmarked) [Compound 71]	0 (less than 50% disease control)	0 (less than 50% disease control)	0 (less than 50% disease control)	1 (about 50-80% disease control)	2 (greater than 80% disease control)	2 (greater than 80% disease control)	2 (greater than 80% disease control)	0 (less than 50% disease control)	0 (less than 50% disease control)	1 (about 50-80% disease control)	0 (less than 50% disease control)
CCN(CC(C)(C)C)C1COC2(CCC(C(C)(C)C)CC2)C1 (centres unmarked) [Compound 132]	0 (less than 50% disease control)	0 (less than 50% disease control)	0 (less than 50% disease control)	0 (less than 50% disease control)	2 (greater than 80% disease control)	2 (greater than 80% disease control)	0 (less than 50% disease control)	0 (less than 50% disease control)	0 (less than 50% disease control)	1 (about 50-80% disease control)	0 (less than 50% disease control)
CC(C)(C)C1CCC2(CC1)CC(CCNC1CCCCC1)CO2 (centres unmarked) [Compound 189, 8-t-Butyl-3-cyclohexylaminoethyl-1-oxaspiro(4,5)decane]	0 (less than 50% disease control)	0 (less than 50% disease control)	0 (less than 50% disease control)	0 (less than 50% disease control)	2 (greater than 80% disease control)	2 (greater than 80% disease control)	1 (about 50-80% disease control)	0 (less than 50% disease control)	0 (less than 50% disease control)	1 (about 50-80% disease control)	0 (less than 50% disease control)
